{"source": "patent US9084904B2", "about": "“Composition for external application” (OTSUKA PHARMACEUTICAL CO., LTD., priority 2008, dated 2015)", "tested_on": "JB6 CL 41-5A Cell Line, mouse epidermis", "assay": "Influence of glucose on the intracellular ATP generation-promotion effect of AMP in cultured mouse epidermal cells (ATPlite luminescence)", "assay_type": "cell-based", "settings": "AMP 1 mM, 2 h", "source_text": "The following reports a test for examining the influence of glucose on the intracellular ATP generation-promotion effect given by AMP. Cultured mouse epidermal cells were used in the test.\nCells: JB6 CL 41-5A Cell Line, mouse epidermis\nCulture medium: an MEM medium containing 5% FCS (Fetal Calf Serum)\nMEM medium (Nacalai Tesque), Fetal calf serum (GIBCO) AMP: disodium adenosine monophosphate (Yamasa Corporation)\nGlucose: D-glucose (Wako Pure Chemical Ind. Ltd.)\nATP measurement: “ATPlite” Luminescence Assay System (Perkin Elmer)\nMicroplate luminescence reader Anthos Lucy 1 (Aloka Co., Ltd.)\nCultured mouse epidermal cells were inoculated in a 96-well microplate in an amount of 5.8×10^3 cells per well. After two hours, the medium was replaced with another culture medium containing a test sample of a predetermined quantity. After another two hours, the medium was removed, and the amount of ATP was measured.\nIn the following experiment example, the content of glucose was 100 mg/dL, based on the fact that the normal fasting blood-sugar level of a living body is generally about 70 to 100 mg/dL.\nThree concentrations (101, 110, 200 mg/dL) of glucose were added to a normal culture medium (containing 100 mg/dL of glucose) so as to examine how each concentration affects the ATP generation-promotion effect of AMP (1 mM). […] The addition of glucose with a concentration of 110 mg/dL increased ATP generation by 25%, based on the concentration of 100 mg/dL that corresponds to the normal fasting blood-sugar level.\nBased on the result of Experiment Example 1, another experiment was performed as follows so as to confirm the influence of the glucose addition on the ATP generation-promotion effect of AMP by ensuring the increase of ATP generation by AMP (1 mM) when the glucose content is 101 mg/dL and 110 mg/dL, and ensuring the decrease of ATP generation by AMP (1 mM) when the glucose content is 200 mg/dL or higher.", "key": {"[1]": {"settings": "Experiment Example 2, glucose 600 mg/dL"}}}
{"smiles": "Nc1ncnc2c1ncn2[C@@H]1O[C@H](COP(=O)([O-])[O-])[C@@H](O)[C@H]1O.[Na+].[Na+]", "note": "[AMP, disodium adenosine monophosphate]", "values": [{"measurement": "increase of ATP generation", "setting": "Experiment Example 1, glucose 110 mg/dL, based on 100 mg/dL glucose", "value": 25, "unit": "%"}, {"measurement": "ATP generation", "setting": "Experiment Example 1, glucose 200 mg/dL", "value": "lower than when the glucose content was 110 mg/dL and AMP was 1 mM"}, {"measurement": "ATP generation", "setting": "Experiment Example 1, glucose content increased from 101 to 110 mg/dL", "value": "ATP generation increased"}, {"measurement": "increase of ATP generation", "setting": "Experiment Example 2, glucose 101 mg/dL", "value": "≥ 30", "unit": "%"}, {"measurement": "increase of ATP generation", "setting": "Experiment Example 2, glucose 110 mg/dL", "value": "≥ 30", "unit": "%"}, {"measurement": "ATP generation", "setting": "Experiment Example 2, glucose 200 mg/dL", "value": "lower than when the glucose content was 100 mg/dL and AMP was 1 mM"}, {"measurement": "ATP generation compared with AMP-free medium containing 100 mg/dL glucose", "setting": "[1]", "value": "not significantly lower"}, {"measurement": "ATP generation-promotion effect of AMP", "setting": "[1]", "value": "small"}]}
